Test results: patent US5866576A, “Epoxide-containing compounds” (Cell Therapeutics, Inc., priority 1997, dated 1999)
Read-outs that look alike come from different tables or passages of the source.

Tests used:
[1] = system: thymocytes; test: IL-2 (ConA co-stimulated) induced proliferation of thymocytes; format: cell-based, mice; details: Mus musculus, Thymocyte, 96 h; Table II; ConA 0.25 ug/ml / IL2 20 ng/ml, 4 days
Method: This example illustrates the effects of inventive compounds nos. 1105, 1114, 1413, 1439, 1594, 2518, 2548R, 2548S, 2562 and 3503 as effective inhibitors of IL-2 induced proliferation of thymocytes. Single cell suspensions of thymus gland cells obtained from 4-6 week old mice were prepared. Two-hundred thousand cells were plated into individual wells of flat-bottom 96-well plates in RPMI-1640-10% FCS medium. The invention compounds were then added to the wells at varying concentrations and the cells incubated for 1-2 hours at 37° C.
Following this pre-incubation a mixture of Concanavalin A (ConA) and Interleukin-2 (IL2) was added to the experimental wells at a final concentration of (0.25 ug/ml ConA)/(20 ng/ml IL2). Appropriate positive and negative controls were set up on each plate. Each variable was set up in quadruplicate.
The plates were incubated for 4 days at 37° C. in a humidified CO2 incubator. On day 4 the wells were pulsed with 1 μCi of tritiated thymidine(3H-TdR) and the plates incubated for an additional 4 hours. The plates were then harvested and the incorporation of 3H-TdR was determined in a liquid scintillation counter. From the CPM obtained from each experimental well an IC-50 for each inventive compound tested was determined. Therefore, a lower reported IC-50 value is indicative of greater inhibition of IL-2-induced proliferation of thymocytes. Table II illustrates IC-50 values (in μM) for inventive compounds inhibiting proliferation at very low concentrations of compound.

[2] = system: normal human bone marrow stromal cells (MSC); test: human bone marrow stromal cell (MSC) proliferation in response to PDGF BB and IL-1α; format: cell-based; details: Table III, PDGF BB 50 ng/ml and IL-1α 10 ng/ml
Method: This example illustrates the effects of inventive compounds nos. 1114, 1413, 1560, 1565, 1594, 2518, 2548R, 2548S and 3503 as effective inhibitors of normal human bone marrow stromal cells (MSC) proliferation in response to Platelet Derived Growth Factor BB (PDGF B) and IL-1α (50 and 10 ng/ml, respectively).
MSC were obtained and malintained in exponential growth, released from a growth plate with trypsin and plated into 96 well tissue culture plates in the presence of Fibroblast Growth Factor (FGFβ) for 48 hours. Growth media were removed and the cells were washed once with serum free media. The cells were then incubated 20-24 hours in serum free media.
After incubation, inventive compounds were added to the cells at the appropriate concentration and then the cells again incubated for 1 hour. PDGF B and IL-1α were added to the cells along with 3H-thymidine and the cells again incubated for an additional 24 hours.
After 24 hours of incubation, the cells were then harvested to assess incorporation of ^3 H-thymidine into DNA (proliferation). From each harvested cell culture, an IC-50 for each inventive compound tested was determined. Therefore, a lower reported IC-50 value is indicatilve of greater activity of the invention compounds in inhibiting MSC proliferation. Table III illustrates IC-50 values (in μM) for invention compounds inhibiting MSC proliferation at very low concentrations of compound.

[3] = system: LPS-induced TNF release in whole human blood; test: LPS-induced TNF release in whole human blood (FIG. 14); format: cell-based; details: LPS 10 ng/ml, read-out: inhibition of TNF-α induction
Method: This example illustrates inhibitive effects of the inventive compounds on LPS-induced TNF release. Data collected is reported as percent inhibition of LPS induced TNF release in whole human blood as compared with control values of TNF release.
In this assay, whole blood was collected from a healthy human donor into Vacutainer tubes containing ACD citrate anti-coagulant. Compounds to be tested were diluted in RPMI medium and added (5 μl) to tubes containing whole blood (225 μl). The tubes were mixed and incubated for a maximum of 1 hour at 37° C. LPS Salmonella abortus equi was diluted in RPMI and added to samples at 20 μl per tube (10 ng/ml final concentration). The prepared tubes were mixed and incubated for 4-6 hours at 37° C. The reaction was terminated by adding 750 μl of RPMI to each tube, then centrifuged to remove cells. Supernatants are collected and stored overnight at 4° C. Supernatant samples are assayed for TNF release using commercial immunoassay kits.

[4] = system: lymphocytes; test: mixed lymphocyte reaction (MLR), human lymphocytes (FIG. 12); format: cell-based
Method: This example illustrates an inhibitive effect of compound no. 1206 in a mixed lymphocyte reaction (MLR). This MNR is used to screen potentially immunosuppressive drugs. Lymphocytes (2×10^5) from normal human donors are grown for 6 days in the presence and absence (control) of inventive compound no. 1206. Tritiated thymidine is added and the lymphocytes grown for a final 6 hours. Incorporation of the tritiated thymidine occurs when the cells are in cell cycle. […] An experimentally determined IC50 value for compound no. 1206 is 70 μM.

[5] = system: PAPH (phosphatidic acid phosphohydrolase); test: blocking of PAPH in a specific activation pathway; format: cell-based; details: pathway not involving PI; human mesangial cells, TNF
From the text: The compounds of the invention, include inhibitors of subspecies of LPAAT in PAPH enzymes with substrate specificity for intermediates with 1,2-diunsaturated and 1-alkyl, 2-unsaturated subspecies. One representative example of such an inhibitor (although not within the genus of inventive compounds) is PTX. […] It should be emphasized that the compounds of the invention affect that subset of PAPH and LPAAT that relates to substrates with unsaturated fatty acids other than arachidonate in the sn-2 position, not the housekeeping forms of these enzymes that serve the PI pathway.

[6] = system: tumor necrosis factor (TNF) levels; details: cited from earlier work
[7] = system: polymorphonuclear leukocytes; details: cited from earlier work; for chemotaxis in polymorphonuclear leukocytes: in response to a stimulator of chemotaxis
[8] = system: cerebral blood flow; details: in vivo; cited from earlier work

Work on Cn1cnc2c1c(=O)n(CCCCCCCCCCC1CO1)c(=O)n2C (centres unmarked) [Compound 2518, 1-(11,12-Oxidodecyl)-3,7-dimethylxanthine] yielded an IC50 [1] of 3.4 µM, an IC50 [2] of 16.7 µM and an inhibition at 50 µM [3] of 35%.

Cn1c(=O)c2ccccc2n(CCCCC2CO2)c1=O (centres unmarked) [Compound 1206, 1-(5,6-Oxidohexyl)-3-methylbenzoyleneurea] gave an IC50 [4] of 70 µM.

In the case of CC(=O)CCCCn1c(=O)c2c(ncn2C)n(C)c1=O [PTX, 1-(5-oxohexyl)-3,7-dimethylxanthine], the “blocking of PAPH” value [5] is given as “blocks PAPH in a specific activation pathway”, the TNF levels ([6]; normal volunteers) is given as “TNF levels were higher among PTX recipients” and the TNF levels ([6]; with GM-CSF, patients undergoing allogeneic bone marrow transplant) is given as “decrease tumor necrosis factor (TNF) levels”. The “activity of certain cytokines to affect chemotaxis” value [7] was “inhibit activity of certain cytokines to affect chemotaxis” and the “chemotaxis in polymorphonuclear leukocytes” value [7] was “stimulate chemotaxis in polymorphonuclear leukocytes”.

In the case of CC(O)CCCCn1c(=O)c2c(ncn2C)n(C)c1=O (centres unmarked) [Compound M1, 1-(5-hydroxyhexyl)-3,7-dimethylxanthine], the “chemotaxis in polymorphonuclear leukocytes” value [7] is listed as “stimulate chemotaxis in polymorphonuclear leukocytes” and the cerebral blood flow [8] is listed as “increasing cerebral blood flow”.
